# Experimental data as given in patent US4656166A, “Antibiotic compounds derived from cephalosporins, process for their production and pharmaceutical compositions” (Sanofi, priority 1983, dated 1987).
# Read-outs that look alike come from different tables or passages of the source.
# Columns and labels:
# Format in all cases: cell-based
# [1] = test system: Pseudomonas RL 112; assay: MIC, in vitro dilution method, Pseudomonas RL 112 (Table III); details: RL112
# Procedure, shortened: (§1)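 Compounds are serially diluted in vitro and tested for bacteriostatic effect on each Gram-negative strain; the lowest inhibiting concentration is recorded as MIC (μg/ml).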
# [2] = test system: Escherichia coli SOL 90; assay: MIC, in vitro dilution method, Escherichia coli SOL 90 (Table III); details: SOL90; Escherichia coli SOL 90; dilution method; read-out: MIC
# Procedure, shortened: as §1
# [3] = test system: Serrtia liquefaciens SL 1326 S; assay: MIC on strain not producing beta-lactamase, Serratia liquefaciens SL 1326 S (Table IV); details: SL1326S, not producing beta-lactamases
# Procedure: (§2) To evaluate the stability of these products towards beta-lactamases, their MIC was determined on isogenic strains producing and not producing beta-lactamases.
# (§3) The results are expressed in μg/ml in Table IV.
# [4] = test system: Escherichia coli 255/L.7; assay: MIC on strain not producing beta-lactamase, Escherichia coli 255/L.7 (Table IV); details: Escherichia coli 255/L.7 *, not producing beta-lactamases; read-out: MIC
# Procedure: as §2, §3
# [5] = test system: Proteus vulgaris GN 76/C.1/3; assay: MIC on strain not producing beta-lactamase, Proteus vulgaris GN 76/C.1/3 (Table IV); details: GN76, not producing beta-lactamases
# Procedure: as §2, §3
# [6] = test system: Serrtia liquefaciens SL/326 A; assay: MIC on beta-lactamase producing strain Serratia liquefaciens SL/326 A (Table IV)
# Procedure: as §2, §3
# [7] = test system: Escherichia coli 255; assay: MIC on beta-lactamase producing strain Escherichia coli 255 (Table IV)
# Procedure: as §2, §3
# [8] = test system: Serratia RL 72; assay: MIC, in vitro dilution method, Serratia RL 72 (Table III); details: RL72
# Procedure, shortened: as §1
# [9] = test system: Enterobacter RO 154; assay: MIC, in vitro dilution method, Enterobacter RO 154 (Table III); details: RO154
# Procedure, shortened: as §1
# [10] = test system: Proteus vulgaris RL 99 bis; assay: MIC, in vitro dilution method, Proteus vulgaris RL 99 bis (Table III); details: RL99BIS
# Procedure, shortened: as §1
# [11] = test system: Proteus vulgaris GN 76/C.1; assay: MIC on beta-lactamase producing strain Proteus vulgaris GN 76/C.1 (Table IV); details: GN76
# Procedure: as §2, §3
# [12] = test system: Citrobacter RL 49; assay: MIC, in vitro dilution method, Citrobacter RL 49 (Table III); details: RL49
# Procedure, shortened: as §1
# [13] = test system: Klebsiella RO 30; assay: MIC, in vitro dilution method, Klebsiella RO 30 (Table III); details: RO30
# Procedure, shortened: as §1
# [14] = Escherichia coli 255, producing beta-lactamases, read-out: MIC
# [15] = Enterobacter RO 154, dilution method, read-out: MIC
# [16] = Klebsiella RO 30, dilution method, read-out: MIC
# [17] = Citrobacter RL 49, dilution method, read-out: MIC
# [18] = Proteus vulgaris RL 99 bis, dilution method, read-out: MIC
# [19] = Proteus vulgaris GN 76/C.1, producing beta-lactamases, read-out: MIC
SMILES,MIC [1] [µg/mL],MIC [2] [µg/mL],MIC [3] [µg/mL],MIC [4] [µg/mL],MIC [5] [µg/mL],MIC [6] [µg/mL],"MIC [7, 14] [µg/mL]",MIC [8] [µg/mL],"MIC [9, 15] [µg/mL]",MIC ([10]; Proteus vulgaris) [µg/mL],MIC ([11]; Proteus vulgaris) [µg/mL],MIC ([12]; Citrobacter) [µg/mL],"MIC [13, 16] [µg/mL]","MIC [12, 17] [µg/mL]",MIC ([9]; Enterobacter) [µg/mL],"MIC [10, 18] [µg/mL]","MIC [11, 19] [µg/mL]","MIC ([7]; Escherichia coli, 255) [µg/mL]",MIC ([13]; Klebsiella) [µg/mL]
CC(C)(O/N=C(\C(=O)NC1C(=O)N2C(C(=O)O)=C(COC(=O)c3ccc(NC(=O)CN)cc3)C[S+]([O-])C12)c1csc(N)n1)C(=O)O (stereo not drawn) [42 467],4,0.25,0.125,≤ 0.0312,0.0625,0.125,0.0625,2,0.5,≤ 0.125,≤ 0.0312,≤ 0.125,0.25,–,–,–,–,–,–
CC(C)(O/N=C(\C(=O)NC1C(=O)N2C(C(=O)O)=C(COC(=O)c3csc(NC(=O)CN)n3)C[S+]([O-])C12)c1csc(N)n1)C(=O)O (stereo not drawn) [42 466],4,0.5,≤ 0.0312,0.125,0.0625,1,0.125,2,0.5,≤ 0.125,≤ 0.0312,–,0.5,0.25,–,–,–,–,–
CC(C)(O/N=C(\C(=O)NC1C(=O)N2C(C(=O)O)=C(COC(=O)CC3CCNCC3)C[S+]([O-])C12)c1csc(N)n1)C(=O)O (stereo not drawn) [42 474],4,0.25,≤ 0.0312,0.0625,0.0625,0.125,0.0625,0.25,–,≤ 0.125,0.0625,≤ 0.125,0.25,–,≤ 0.125,–,–,–,–
Cc1c(CN)cccc1C(=O)SCC1=C(C(=O)O)N2C(=O)C(NC(=O)C(=NOC(C)(C)C(=O)O)c3csc(N)n3)C2[S+]([O-])C1 (stereo not drawn) [compound 42535],8,0.5,0.125,≤ 0.0312,0.125,0.0625,0.125,1,0.5,≤ 0.125,0.0625,–,0.25,0.25,–,–,–,–,–
CC(C)(O/N=C(\C(=O)NC1C(=O)N2C(C(=O)O)=C(COC(=O)CCCCN)C[S+]([O-])C12)c1csc(N)n1)C(=O)O (stereo not drawn) [41 967],4,0.25,≤ 0.12,≤ 0.12,≤ 0.12,0.25,≤ 0.12,0.5,2,–,–,–,0.25,0.5,–,≤ 0.12,≤ 0.12,–,–
CC(C)(ON=C(C(=O)NC1C(=O)N2C(C(=O)O)=C(COC(=O)c3ccc(NC(=O)CCN)cc3)C[S+]([O-])C12)c1csc(N)n1)C(=O)O (stereo not drawn) [42 546],4,0.25,≤ 0.0312,≤ 0.0312,0.125,0.25,0.0625,1,0.25,≤ 0.125,≤ 0.0312,–,0.25,0.25,–,–,–,–,–
CC(C)(ON=C(C(=O)NC1C(=O)N2C(C(=O)O)=C(COC(=O)C3CCN(C(=O)CN)CC3)C[S+]([O-])C12)c1csc(N)n1)C(=O)O (stereo not drawn) [42 549],4,0.25,≤ 0.0312,0.0625,0.0625,0.125,0.125,0.5,0.25,≤ 0.125,≤ 0.0312,≤ 0.125,0.25,–,–,–,–,–,–
NCC(=O)Nc1ccc(C(=O)OCC2=C(C(=O)O)N3C(=O)C(NC(=O)C(=NOC4(C(=O)O)CCC4)c4csc(N)n4)C3[S+]([O-])C2)cc1 (stereo not drawn) [42 548],2,0.25,≤ 0.0312,≤ 0.0312,0.0625,0.125,–,0.5,0.25,≤ 0.125,0.0625,≤ 0.125,–,–,–,–,–,0.625,0.125
CC(C)(ON=C(C(=O)NC1C(=O)N2C(C(=O)O)=C(COC(=O)C3CCCNC3)C[S+]([O-])C12)c1csc(N)n1)C(=O)O (stereo not drawn) [42 022],4,0.5,≤ 0.12,0.25,≤ 0.12,≤ 0.12,0.25,0.5,2,–,–,–,0.25,0.25,–,≤ 0.12,≤ 0.12,–,–
